1 compound from patent publication US20160220464A1 (WUHAN OPTICS VALLEY BRIDGEBIOMED INTERNATIONAL CORPORATION, priority 2013, published 2016) can be followed below.

Like-named read-outs stand apart in the source and are kept apart here.

What all share (format): cell-based
For test [1], the target named is T1, bradykinin (BK) B2 receptors (Homo sapiens, UniProt P30411).
T1 construct: The cell strains used in the study were human primary vein endothelial cells (HPVEC) and human aortic smooth muscle cells (HASMC); endogenous in cells; host or cells: human primary vein endothelial cells (HPVEC) and human aortic smooth muscle cells (HASMC)
T1 sequence (P30411 1-391): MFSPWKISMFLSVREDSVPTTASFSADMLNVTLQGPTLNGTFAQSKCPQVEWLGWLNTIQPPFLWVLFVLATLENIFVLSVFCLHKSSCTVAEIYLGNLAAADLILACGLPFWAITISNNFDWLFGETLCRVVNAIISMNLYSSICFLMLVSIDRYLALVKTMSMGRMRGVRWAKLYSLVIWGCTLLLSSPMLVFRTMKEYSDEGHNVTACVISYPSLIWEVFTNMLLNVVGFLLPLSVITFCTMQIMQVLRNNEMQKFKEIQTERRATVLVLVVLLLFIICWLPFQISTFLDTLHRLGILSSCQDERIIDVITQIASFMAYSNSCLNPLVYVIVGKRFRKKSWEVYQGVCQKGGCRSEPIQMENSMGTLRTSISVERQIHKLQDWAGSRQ
Put plainly: PG secretion by BK B2 receptor agonists (PG kit, OD), EC50 and Emax. The conditions noted are these: HASMC; for Emax: relative to BK. As to the method:
Implantation Two cell lines were transferred into T-75 cell culture flask, and then the instructions of PG kit were strictly followed when cells have reached the appropriate density. Day 1 Cells were seeded in 24 well dishes with minimum medium and allowed to adhere overnight. Day 2 Cells were starved in the serum-free conditioned medium. Day 3 Minimum medium were used, and YLB-01, YLB-02 and YLB-03 were added to the medium, in which the concentration was 0.1 nM, 1 nM, 10 nM, 30 nM, 100 nM, 300 nM, 1 μM, 3 μM and 10 μM, respectively; the cells were incubated at 37° C. for 1 h. The supernatant was collected after incubation for later use. Day 4 24 well dishes were washed and then dyed for 45-90 min, and then the OD value was measured for analysis. The cell strains used in the study were human primary vein endothelial cells (HPVEC) and human aortic smooth muscle cells (HASMC).

For the next test, the target named is T2, BK B2 receptor (Homo sapiens, UniProt P30411).
T2 construct: The cell strains used in the study were human primary vein endothelial cells (HPVEC) and human aortic smooth muscle cells (HASMC); endogenous in cells; host or cells: human primary vein endothelial cells (HPVEC) and human aortic smooth muscle cells (HASMC)
T2 sequence (P30411 1-391): T1 sequence (P30411 1-391)
Put plainly: Relative amount of PG secretion in cell supernatant by enzyme immunoassay (EIA). Conditions: 1 h, 1 μM BK set as 100%. As to the method: YLB-01, YLB-02 and YLB-03 were selected for the study as described below in Table 1, and BK was used as control. Implantation Two cell lines were transferred into T-75 cell culture flask, and then the instructions of PG kit were strictly followed when cells have reached the appropriate density. Day 1 Cells were seeded in 24 well dishes with minimum medium and allowed to adhere overnight. Day 2 Cells were starved in the serum-free conditioned medium. […] The supernatant was collected after incubation for later use. Day 4 24 well dishes were washed and then dyed for 45-90 min, and then the OD value was measured for analysis. […] In order to detect endogenous prostaglandin, enzyme immunoassay (EIA) was used to determine the amount of prostaglandin and subtypes thereof in the cell supernatant described above.

The target in the next test is T3, B2 receptor (Homo sapiens, UniProt P30411).
T3 construct: The cell strains used in the study were human primary vein endothelial cells (HPVEC) and human aortic smooth muscle cells (HASMC); endogenous in cells; host or cells: human primary vein endothelial cells (HPVEC) and human aortic smooth muscle cells (HASMC)
T3 sequence (P30411 1-391): T1 sequence (P30411 1-391)
The test can be described thus: Relative PG secretion with B2 receptor inhibitor HOE-140. The conditions noted are these: 1 μM BK set as 100%. The method, then: Two different cell lines were transferred into T-75 cell culture flask, and then the instructions of PG kit were strictly followed when cells have reached the appropriate density. Day 1. Cells were seeded in 24 well dishes with minimum medium and allowed to adhere overnight. Day 2. Cells were starved in the serum-free conditioned medium. Day 3. […] Cells were incubated at 37° C. for 1 h. The supernatant was collected after incubation for later use. Day 4. 24 well dishes were washed and then dyed for 45-90 min, and then the quantitative analysis was carried out.

As usually defined, the EC50 is the concentration that produces a half-maximal response. Higher therefore signals lower potency in that assay. The term Emax denotes the size of the effect at its maximum, as opposed to the concentration needed.

In test [1] (1 h incubation at 37° C.), `CNC(=O)c1ccc(CCC(=O)NCC(=O)N(C)c2ccc(Cl)c(COc3cccc4c3nc(OC)n4Cc3ccccn3)c2Cl)cc1` [YLB-01, 4-(3-2-((2,4-dichloro-3-((2-methoxy-1-(pyridine-2ylmethyl)-1H-benzo[d]imidazol-4-yloxy)methyl)phenyl)(methyl)amino-2-oxoethylamino)-3-oxopropyl)-N-methylbenzamid] registered an EC50 of 24.4 ± 3 nM. The figures for the Emax in test [1] (read-out: Emax) and in test [1] were 87% and 87.79 ± 4.2%, respectively. The compound further had an activation at 0.0001 µM on BK B2 receptor (0.1 nM) of 0%. Also, at BK B2 receptor (1 nM), the activation at 0.001 µM was 7.69 ± 2.19%. Moreover, the activation at 0.01 µM at BK B2 receptor (10 nM) is ~50%. On BK B2 receptor (30 nM), this compound came in with an activation at 0.03 µM of 53.7 ± 4.56%. The activation at 0.1 µM at BK B2 receptor (100 nM) was determined as 73.4 ± 2.7%. The compound also came in with an activation at 0.3 µM at BK B2 receptor (300 nM) of 83.8 ± 6.45%. This compound registered an activation at 1 µM on BK B2 receptor (1 μM) of 87 ± 3.76%. At BK B2 receptor (3 μM), this compound registered an activation at 3 µM of 87.8 ± 4.2%. This compound also came in with an activation at 10 µM on BK B2 receptor (10 μM) of 86.5 ± 7.44%. Also, the “Relative PG Secretion Amount with 1 μM HOE-140” value is 1.54 ± 2.53% at B2 receptor (agonist 0.1 nM + HOE-140 1 μM); 4.21 ± 3.74% on B2 receptor (agonist 1 nM + HOE-140 1 μM); 4.17 ± 3.21% on B2 receptor (agonist 10 nM + HOE-140 1 μM); 2.86 ± 2.35% on B2 receptor (agonist 30 nM + HOE-140 1 μM); 3.44 ± 3.77% at B2 receptor (agonist 100 nM + HOE-140 1 μM); 0.45 ± 2.86% on B2 receptor (agonist 300 nM + HOE-140 1 μM). In addition, the “Relative PG Secretion Amount with 1 μM HOE-140” value on B2 receptor (agonist 1 μM + HOE-140 1 μM) worked out at 3.66 ± 2.11%; at B2 receptor (agonist 3 μM + HOE-140 1 μM) it was 6.98 ± 1.6%; at B2 receptor (agonist 10 μM + HOE-140 1 μM), 40.32 ± 3.27%.
